Experimental data from PMC11943303 (International Journal of Molecular Sciences, 2025).
Entries after “also recorded” stand apart in the source; their conditions may differ. Where two headings read alike, the source gives them in different places.

Legend:
[1] = target: T1, transient outward potassium current, ITo (Rattus norvegicus, UniProt Q62897+Q63881); assay: ITo current block (dose-response, I/V), whole-cell patch clamp in rat cardiomyocytes; assay type: cell-based, rat (Sprague Dawley); conditions: 15 min pre-incubation, n = 32, 6 animals; for IC50: Hill equation fit to Gmax,[X]/Gmax,[ctrl], partial block
T1 construct: INa and ITo were recorded from freshly isolated left ventricular cardiomyocytes; endogenous in cells; host or cells: freshly isolated left ventricular cardiomyocytes of adult Sprague Dawley rats
T1 sequence (Q63881 1-630): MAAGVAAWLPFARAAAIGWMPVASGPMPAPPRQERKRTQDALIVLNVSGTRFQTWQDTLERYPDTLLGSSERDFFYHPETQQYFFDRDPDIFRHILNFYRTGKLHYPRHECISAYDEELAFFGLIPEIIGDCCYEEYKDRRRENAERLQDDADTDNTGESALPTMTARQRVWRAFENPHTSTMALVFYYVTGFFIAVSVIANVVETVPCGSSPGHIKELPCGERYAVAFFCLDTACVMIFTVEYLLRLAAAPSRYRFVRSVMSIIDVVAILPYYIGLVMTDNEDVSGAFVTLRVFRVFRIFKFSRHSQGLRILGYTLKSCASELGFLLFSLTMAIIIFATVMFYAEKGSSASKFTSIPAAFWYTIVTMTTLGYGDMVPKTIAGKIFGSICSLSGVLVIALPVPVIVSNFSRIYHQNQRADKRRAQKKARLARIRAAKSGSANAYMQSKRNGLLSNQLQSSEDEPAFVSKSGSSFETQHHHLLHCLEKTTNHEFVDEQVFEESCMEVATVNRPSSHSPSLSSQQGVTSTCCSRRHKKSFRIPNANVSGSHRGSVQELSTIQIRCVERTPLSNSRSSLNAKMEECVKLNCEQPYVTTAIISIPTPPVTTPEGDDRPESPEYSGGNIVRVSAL
T1 sequence (Q62897 1-655): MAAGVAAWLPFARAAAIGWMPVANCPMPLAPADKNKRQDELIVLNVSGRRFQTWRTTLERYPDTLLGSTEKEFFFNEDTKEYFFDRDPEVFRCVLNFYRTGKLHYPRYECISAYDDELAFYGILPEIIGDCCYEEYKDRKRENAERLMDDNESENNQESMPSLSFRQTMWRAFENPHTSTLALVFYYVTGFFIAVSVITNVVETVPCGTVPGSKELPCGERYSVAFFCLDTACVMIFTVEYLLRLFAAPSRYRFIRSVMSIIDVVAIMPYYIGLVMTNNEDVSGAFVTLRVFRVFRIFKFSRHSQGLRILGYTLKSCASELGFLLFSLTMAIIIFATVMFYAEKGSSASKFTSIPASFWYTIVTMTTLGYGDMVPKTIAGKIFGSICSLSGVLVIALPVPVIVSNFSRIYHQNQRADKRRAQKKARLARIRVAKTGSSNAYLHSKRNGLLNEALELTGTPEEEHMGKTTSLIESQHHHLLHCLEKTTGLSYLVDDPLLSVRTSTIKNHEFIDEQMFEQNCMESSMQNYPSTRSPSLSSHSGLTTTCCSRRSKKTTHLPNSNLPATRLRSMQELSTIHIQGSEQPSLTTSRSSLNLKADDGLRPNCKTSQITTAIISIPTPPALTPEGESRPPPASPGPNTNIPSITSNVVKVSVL
T1 sequence (Q9JM59 1-270 partner): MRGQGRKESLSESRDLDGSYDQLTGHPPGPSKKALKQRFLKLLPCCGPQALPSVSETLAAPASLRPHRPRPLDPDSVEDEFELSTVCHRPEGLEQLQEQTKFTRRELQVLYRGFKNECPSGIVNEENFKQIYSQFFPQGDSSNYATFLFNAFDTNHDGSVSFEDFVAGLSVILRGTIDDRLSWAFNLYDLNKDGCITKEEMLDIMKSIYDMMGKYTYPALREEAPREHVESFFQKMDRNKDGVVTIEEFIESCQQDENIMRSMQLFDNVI
Procedure: Ventricular cardiomyocytes from adult rats were isolated by enzymatic dissociation as previously reported. Adult Sprague Dawley rats (Charles River, Montreal, QC, Canada) were heparinized (5000 U) and sedated with 2% Isoflurane in an oxygen chamber (2 L/min). Hearts were excised by thoracotomy and cannulated via the aorta to be mounted on a Langendorff perfusion apparatus. Hearts were initially perfused with standard calcium-free Tyrode solution [21] at 37 °C (3–5 min), at a rate of 13 mL/min, and pre-digested by perfusion with low-calcium (150 μM) Tyrode solution supplemented with 220–280 U/mg of low-trypsin collagenase type 2 (Worthington Biochemical, Toronto, ON, Canada) for less than 15 min.
Once removed from the Langendorf perfusion apparatus, the heart septum and left ventricle were cut and gently shaken for 3 min in a 50/50 solution (digestion sln/low-calcium Tyrode solution) to disperse the isolated cells. The supernatant of the cell solution was filtered, and cells were left to settle in a 15 mL conical tube. The procedure was repeated 4 times, and cells were divided into fractions. Cardiomyocyte pellets from each fraction were washed with low-calcium Tyrode solution. For the final washing, supernatant solution was removed and replaced by standard Kraftbrühe (KB) solution [21], and the cells were kept at 4 °C.
INa and ITo were recorded from freshly isolated left ventricular cardiomyocytes and TSA201 cells after 48 h of transfection at room temperature. Electrical currents were recorded using the patch-clamp technique in whole-cell configuration via an Axopatch 200B amplifier (Molecular Devices, Sunnyvale, CA, USA). Cardiomyocytes and TSA201 cells were pre-incubated with 2Nal during 15 min and continuously perfused during recordings. In preliminary experiments, we measured the onset of the block by 2Nal by initially superfusing with control solution and subsequently washing in 2Nal solution. Recordings were acquired at 10 kHz and filtered to 5 kHz (lowpass Bessel filter). Whole-cell capacitance and series resistance compensation (85%) were optimized to reduce the capacitive artifact and minimize voltage error. Analysis of the recordings was performed using the Clampex 10.7 analysis software.
Extracellular solution for ITo recordings in cardiomyocytes contained (in mM) 126 NaCl, 5.4 KCl, 1 MgCl2, 20 HEPES, 2 CaCl2, and 11 glucose. The pH and osmolarity were adjusted to 7.4 and 295–300 mOsm, respectively, using NaOH and sucrose. Pipette solution contained (in mM) 90 K-aspartate, 30 KCl, 1 MgCl2, 20 HEPES, 5 NaCl, 5 MgATP, 5.5 Glucose. The pH was adjusted with KOH to 7.3 and osmolarity to 295–300 mOsm. For ITo recordings in TSA201 cells, extracellular solution contained 130 NaCl, 5 KCl, 1 MgCl2, 2.8 Na-acetate, 10 HEPES, 1.8 CaCl2, and 10 glucose. […]

[2] = system: transient outward potassium current, ITo, and its sustained component, IKsus; set-up: method as in PMID 18424641, PMID 12215493; conditions: cited from earlier work
[3] = system: ultra-rapid potassium current; set-up: method as in PMID 23106642; conditions: rabbit left-atrium cardiomyocytes; cited from earlier work
[4] = system: large conductance calcium-activated K^+ channels; conditions: cited from earlier work
[5] = system: rabbit left-atrium cardiomyocytes; set-up: method as in PMID 23106642; conditions: cited from earlier work
[6] = system: cardiac sodium current (INa); conditions: cited from earlier work
Excerpt: At this stage, we cannot distinguish how specific affinities of Kv4.2 or Kv4.3 for 2Nal modulate the overall effect on ITo amplitude in native cardiomyocytes. However, our observation of apparent EC50 differing between the peak and sustained co ...

[7] = system: heart; conditions: cited from earlier work
Excerpt: (§1) Apelin is an endogenous peptide recognized for its therapeutic potential in hypertension and heart failure, as well as for its modulation of the endocrine system. This adipokine is primarily synthesized in adipose tissue but is also produced in the gastrointestinal tract, brain, kidney, lung, mammary glands, and cardiovascular system.

[8] = system: artery; conditions: by enhancing nitric oxide (NO) production in the endothelium; cited from earlier work
Excerpt: as §1

[9] = set-up: method as in PMID 10777510, PMID 18272843; conditions: isoforms identified in vivo; cited from earlier work

CSCC[C@H](NC(=O)[C@@H]1CCCN1C(=O)CNC(=O)[C@H](CCCCN)NC(=O)[C@H](Cc1c[nH]cn1)NC(=O)[C@H](CO)NC(=O)[C@H](CC(C)C)NC(=O)[C@H](CCCNC(=N)N)NC(=O)[C@@H]1CCCN1C(=O)[C@H](CCCNC(=N)N)NC(=O)[C@@H](N)CCC(N)=O)C(=O)N1CCC[C@H]1C(=O)N[C@@H](Cc1ccc2ccccc2c1)C(=O)O [2Nal]
Maximum block of ITo,peak ([1]; peak component, Gmax ratio, holding −80 mV, 500 ms steps, mean ± SEM): 34.2 ± 5.6%
IC50 ([1]; peak component, read-out: IC50 (half-maximal blocking concentration) for ITo,peak): 300 ± 100 pM
Maximum block of ITo,sus ([1]; sustained component, Gmax ratio, holding −80 mV, 500 ms steps, mean ± SEM): 47 ± 9.2%
IC50 ([1]; sustained component, read-out: IC50 (half-maximal blocking concentration) for ITo,sus): 24 ± 10 pM

apelin
effect on ITo and IKsus [2]: no effects
effect on ultra-rapid potassium current [3]: blocks the ultra-rapid potassium current
effect on large conductance calcium-activated K+ channels [4]: inhibiting large conductance calcium-activated K^+ channels
effect on action potential duration [5]: reduces action potential duration (APD)
effect on cardiac sodium current INa [6]: increase in INa; also recorded: modulate cardiac sodium current (INa) gating and enhance its amplitude
cardiac inotropic effect [7]: strong positive cardiac inotropic effects
vasodilation [8]: triggers arterial vasodilation

apelin-36: predominant apelin isoform identified in vivo (LVQPRGSRNGPGPWQGGRRKFRRQRPRLSHKGPMPF; Apelin-36; UniProt Q9ULZ1 42-77, looked up)
susceptibility to proteolysis [9]: highly susceptible to proteolysis
